Data: ChEMBL document CHEMBL1145858, “Synthesis and structure-activity studies of novel orally active non-terpenoic 2,3-oxidosqualene cyclase inhibitors” (J Med Chem, 2003)

Key:
[1] = target: T1, Lanosterol synthase (Homo sapiens, UniProt P48449)
T1 sequence (P48449 whole entry): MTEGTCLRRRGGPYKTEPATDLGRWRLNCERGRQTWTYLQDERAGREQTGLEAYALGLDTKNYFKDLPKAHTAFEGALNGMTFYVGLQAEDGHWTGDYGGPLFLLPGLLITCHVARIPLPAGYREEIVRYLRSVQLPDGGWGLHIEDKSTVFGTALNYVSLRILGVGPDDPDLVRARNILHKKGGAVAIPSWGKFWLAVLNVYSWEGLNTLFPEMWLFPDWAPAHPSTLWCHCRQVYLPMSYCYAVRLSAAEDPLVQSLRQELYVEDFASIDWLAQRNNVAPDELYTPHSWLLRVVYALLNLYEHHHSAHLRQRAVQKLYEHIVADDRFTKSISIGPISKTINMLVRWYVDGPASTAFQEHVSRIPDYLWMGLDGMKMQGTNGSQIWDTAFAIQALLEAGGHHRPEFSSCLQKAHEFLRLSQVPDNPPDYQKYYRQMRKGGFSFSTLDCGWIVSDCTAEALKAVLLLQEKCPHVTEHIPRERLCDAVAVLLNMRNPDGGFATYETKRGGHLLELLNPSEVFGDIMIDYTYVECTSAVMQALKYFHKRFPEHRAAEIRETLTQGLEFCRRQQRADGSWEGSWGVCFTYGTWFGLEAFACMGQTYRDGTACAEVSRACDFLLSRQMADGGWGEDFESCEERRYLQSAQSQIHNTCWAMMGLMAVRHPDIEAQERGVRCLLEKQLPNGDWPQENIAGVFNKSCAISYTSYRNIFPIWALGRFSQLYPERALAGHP

[2] = physchem
[3] = test system: Cricetinae gen. sp.; assay: […] effect on total plasma cholesterol(TC) level in fat-fed hamsters treated for 10 days at 200 umol/kg/day; format: functional, Cricetulus griseus
[4] = test system: Cricetinae gen. sp.; assay: […] effect on LDL cholesterol (LDL-C) level in fat-fed hamsters treated for 10 days at 200 umol/kg/day; format: functional, Cricetulus griseus
[5] = target: T2, Lanosterol synthase (Homo sapiens) (UniProt P48449); settings: at 100 nM
T2 sequence (whole entry): T1 sequence (P48449 whole entry)

[6] = target: T1, Lanosterol synthase; assay: In vitro inhibition of human 2,3-oxidosqualene cyclase.

SMILES	IC50 [1]	LDL-C [4]	further results
C=CCN(C)CCCCCCOc1ccc2c(c1)OCC=C2c1ccc(Br)cc1	11.4 nM		
C=CCN(C)CCCCCCOc1ccc2c(c1)CCN=C2c1ccc(Br)cc1	7.9 nM		
CN(CCCCCCOc1ccc(C(=O)c2ccc(Br)cc2)cc1)CC1CC1			pKa [2]: 9.37
C=CCN(C)CCCCCCOc1ccc(C(=O)c2ccc(Br)cc2)cc1.O=C(O)/C=C/C(=O)O		-25%	TC [3]: -27%; pKa [2]: 8.18
C=CCN(C)CCCCCCOc1ccc(-c2nsc3cc(Br)ccc23)cc1			inhibition [5]: 5%
C=CCN(C)CCCCCCOc1ccc(C(=O)c2ccc(Br)cc2)c(OC)c1	4.6 nM		
C=CCN(C)CCCCCCOc1ccc2c(-c3ccc(Br)cc3)csc2c1	5.6 nM		
C=CCN(C)CCCCCCOc1ccc(C(=O)c2ccc(Br)cc2)c(NC)c1	4.1 nM		
C=CCN(C)CCCCCCOc1ccc2c(-c3ccc(Br)cc3)nccc2c1.Cl		-14%	
Br.C=CCN(C)CCCCCCOc1ccc(C(=O)c2ccccc2)cc1	22.5 nM	-12%	
C=CCN(C)CCCCCCOc1ccc2c(-c3ccc(Br)cc3)coc2c1			inhibition [5]: 14%
CN(CCCCCCOc1ccc(C(=O)c2ccc(Br)cc2)cc1)C1CC1	35.3 nM		pKa [2]: 7.48
C=CCN(C)CCCCCCOc1ccc(C(=O)c2ccc(Br)cc2)c(F)c1.O=C(O)/C=C/C(=O)O		-27%	TC [3]: -41%
CN(CCCO)CCCCCCOc1ccc(C(=O)c2ccc(Br)cc2)cc1	15.7 nM		pKa [2]: 9.05
C=CCN(C)CCCCCCOc1ccc2c(c1)CON=C2c1ccc(Br)cc1.O=C(O)/C=C/C(=O)O		-3%	
C=CCN(C)CCCCCCOc1ccc(C(=O)c2ccc(Br)cc2)c(SC)c1	6.2 nM		
C=CCN(C)CCCCCCOc1ccc(C(=O)c2ccc(Br)cc2)cn1	8.7 nM		
C=CCN(C)CCCCCCOc1ccc2c(-c3ccc(Br)cc3)nsc2c1.O=C(O)/C=C/C(=O)O		-33%	TC [3]: -36%
C=CCN(C)CCCCCCOc1ccc2c(-c3ccc(Br)cc3)noc2c1			inhibition [5]: 21%
C=CCN(C)CCCCCCOc1ccc(C(=O)c2ccc(Br)cc2)c(O)c1	6.3 nM		
C=CCN(C)CCCCCCOc1ccc(C(=O)c2ccc(F)cc2)cc1.Cl	6.7 nM	-24%	TC [3]: -40%
C=CCN(C)CCCCCCOc1ccc(C(=O)c2ccc([N+](=O)[O-])cc2)cc1			IC50 [6]: 1.9 nM
C=CCN(C)CCCCCCOc1ccc2c(c1)S(=O)(=O)N=C2c1ccc(Br)cc1	7.8 nM		
